The record followed here is paper PMC7724566, “Prospects for Clinical Development of Stat5 Inhibitor IST5-002: High Transcriptomic Specificity in Prostate Cancer and Low Toxicity In Vivo” (Cancers, 2020).

Test [1] has as its target T1, JAK3 (Homo sapiens, UniProt P52333).
T1 sequence (P52333 1-1124): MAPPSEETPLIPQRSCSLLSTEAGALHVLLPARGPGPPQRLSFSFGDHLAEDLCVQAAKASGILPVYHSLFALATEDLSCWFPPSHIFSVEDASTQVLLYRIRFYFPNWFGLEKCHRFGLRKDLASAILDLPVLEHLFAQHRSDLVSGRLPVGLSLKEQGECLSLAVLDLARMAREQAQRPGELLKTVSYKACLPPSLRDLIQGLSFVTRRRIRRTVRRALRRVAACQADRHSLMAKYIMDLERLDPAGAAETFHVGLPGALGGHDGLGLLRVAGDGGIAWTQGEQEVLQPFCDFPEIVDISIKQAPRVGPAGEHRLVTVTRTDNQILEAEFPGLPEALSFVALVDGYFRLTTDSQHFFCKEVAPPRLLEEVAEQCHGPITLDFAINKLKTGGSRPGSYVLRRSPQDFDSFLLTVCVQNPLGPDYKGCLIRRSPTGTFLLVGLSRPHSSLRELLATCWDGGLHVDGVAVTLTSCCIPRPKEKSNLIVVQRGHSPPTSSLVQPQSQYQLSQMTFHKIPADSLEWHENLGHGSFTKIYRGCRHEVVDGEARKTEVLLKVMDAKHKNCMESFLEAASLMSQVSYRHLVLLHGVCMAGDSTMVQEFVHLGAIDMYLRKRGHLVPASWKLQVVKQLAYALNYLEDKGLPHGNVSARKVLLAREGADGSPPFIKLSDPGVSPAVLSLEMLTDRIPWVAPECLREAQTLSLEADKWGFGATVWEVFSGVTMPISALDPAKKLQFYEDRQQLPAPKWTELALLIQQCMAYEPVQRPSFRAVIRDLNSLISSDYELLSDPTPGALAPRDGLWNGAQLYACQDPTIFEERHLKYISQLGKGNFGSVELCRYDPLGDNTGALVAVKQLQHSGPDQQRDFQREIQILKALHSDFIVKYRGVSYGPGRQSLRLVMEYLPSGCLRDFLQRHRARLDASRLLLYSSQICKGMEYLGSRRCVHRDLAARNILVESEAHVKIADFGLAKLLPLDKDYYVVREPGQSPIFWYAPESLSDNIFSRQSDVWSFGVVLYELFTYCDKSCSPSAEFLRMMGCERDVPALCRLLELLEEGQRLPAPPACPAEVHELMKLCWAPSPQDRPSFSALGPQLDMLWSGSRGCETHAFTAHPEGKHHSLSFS
Put plainly: Radiometric filtration binding cell-free kinase assay. Set-up: purchased Reaction Biology (JAK1/2/3, TYK2); Luceome Biotechnologies KinaseSeeker (others). The test is classed as biochemical. Particulars: percent activity of kinase after exposure to IST5 1 µM. The procedure:
(§1) For Jak1, Jak2, Jak3 and Tyk2, a radiometric filtration binding assay was conducted by Reaction Biologicals (Malvern, PA, USA) (Table 1). This radiometric assay is a cell-free assay which is based on conventional filter-binding assays, directly measuring kinase catalytic activity toward a specific substrate. For evaluation of the activity of the other kinases, the Kinase Seeker Technology was utilized (Luceome Biotechnologies, Tucson, AZ, USA), which is a luminescence-based cell-free assay. In this assay, the reassembly of luciferase fragments is mediated by the interaction of a kinase with an active site-dependent probe. The competitive displacement of the probe by an inhibitor is measured by a change in luminescence signal. Percent activity of each kinase after exposure to IST5 (1 µM) is presented.

Test [2] has as its target JAK2 (Homo sapiens, UniProt O60674). The test is described as above. Type of test: biochemical. On the set-up: purchased Reaction Biology (JAK1/2/3, TYK2); Luceome Biotechnologies KinaseSeeker (others). Particulars: percent activity of kinase after exposure to IST5 1 µM. The protocol: as §1
The subject of test [3] is MCM10. Nature of the test: qRT-PCR mRNA level. Type of test: cell-based, human. Conditions: CWR22Pc cells, 6 µM vs. vehicle, 3 days. An excerpt:
(§2) Specifically, significant changes were evident in 21 of 203 genes associated with DNA replication and nuclear division (Figure 3B). Specifically, genes associated with minichromosome maintenance family (MCM2, MCM3, MCM4, MCM5, MCM10) were regulated by both IST5 and shStat5 in PC cells, and were associated with DNA replication and DNA replication initiation process as indicated by the functional module analysis (Figure 3). In addition, suppression of the top genes regulated by IST5 and genetic knockdown of Stat5 was confirmed by quantitative real-time polymerase chain reaction (qRT-PCR) in CWR22Pc cells after 3 days of Stat5 inhibition (Figure 3C). It is important to note that the gene expression changes induced by both shStat5 and IST5 in PC cells described here represent later changes in gene expression networks and the early genes (at 24 h) regulated by shStat5/IST5 might be different.
(§3) Figure 3 Pathway enrichment analysis of genes regulated similarly by IST vs. genetic knockdown of Stat5 in prostate cancer cells. […] (C), mRNA levels of MCM10 and BRCA2 were reduced, determined by quantitative real-time polymerase chain reaction (qRT-PCR), in CWR22Pc cells upon genetic knockdown of Stat5 by lentiviral expression of shStat5 vs. shCtrl or by treatment with IST5 (6 µM) vs. vehicle for 3 days. […]

Test [4] deals with BRCA2. Put plainly: qRT-PCR mRNA level. Type of test: cell-based, human. Conditions: CWR22Pc cells, 6 µM vs. vehicle, 3 days.
From the text: as §2, §3

Chain of JAK2 (O60674 whole entry): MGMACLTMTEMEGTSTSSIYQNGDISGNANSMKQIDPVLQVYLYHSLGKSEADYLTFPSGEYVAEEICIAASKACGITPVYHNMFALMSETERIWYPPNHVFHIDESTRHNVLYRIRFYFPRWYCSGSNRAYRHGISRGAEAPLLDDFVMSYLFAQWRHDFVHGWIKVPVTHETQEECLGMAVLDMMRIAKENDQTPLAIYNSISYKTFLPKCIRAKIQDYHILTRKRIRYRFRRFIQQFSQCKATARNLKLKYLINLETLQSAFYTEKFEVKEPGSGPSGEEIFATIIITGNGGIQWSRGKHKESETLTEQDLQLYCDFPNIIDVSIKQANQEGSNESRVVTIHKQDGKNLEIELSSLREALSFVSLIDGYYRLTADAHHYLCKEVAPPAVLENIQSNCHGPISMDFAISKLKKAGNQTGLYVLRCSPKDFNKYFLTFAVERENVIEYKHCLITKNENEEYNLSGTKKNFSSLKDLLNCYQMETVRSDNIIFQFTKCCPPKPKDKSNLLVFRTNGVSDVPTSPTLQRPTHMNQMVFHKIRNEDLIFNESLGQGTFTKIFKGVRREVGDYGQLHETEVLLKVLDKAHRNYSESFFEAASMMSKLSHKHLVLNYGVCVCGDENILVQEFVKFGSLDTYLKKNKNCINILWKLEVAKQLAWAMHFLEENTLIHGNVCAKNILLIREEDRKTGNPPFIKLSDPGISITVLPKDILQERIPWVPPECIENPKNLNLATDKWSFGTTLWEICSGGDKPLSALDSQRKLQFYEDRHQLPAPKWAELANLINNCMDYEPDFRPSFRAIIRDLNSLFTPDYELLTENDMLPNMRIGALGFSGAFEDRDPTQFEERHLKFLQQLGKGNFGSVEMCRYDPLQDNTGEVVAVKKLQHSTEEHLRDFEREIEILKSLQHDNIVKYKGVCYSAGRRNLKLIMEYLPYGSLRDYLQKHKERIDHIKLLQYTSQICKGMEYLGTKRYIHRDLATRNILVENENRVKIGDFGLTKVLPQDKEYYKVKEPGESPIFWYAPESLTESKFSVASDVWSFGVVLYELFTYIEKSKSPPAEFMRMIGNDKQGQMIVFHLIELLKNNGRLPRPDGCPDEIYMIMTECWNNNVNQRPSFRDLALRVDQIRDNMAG

In the case of `O=P(O)(O)OCC1OC(n2cnc3c(NCc4ccccc4)ncnc32)C(O)C1O` (stereo not shown) [IST5], the Activity in test [1] came out at 100.0%; in test [2] it was 95.4%. In addition, in test [3], the “mRNA level of MCM10” value is recorded as “reduced”. Also, the “mRNA level of BRCA2” value in test [4] is “reduced”.
